Counter-ions that a name gives are not always drawn.
Target: T1, human JAK3 (Homo sapiens, UniProt P52333)
T1 construct: His (N); purchased Carna Bioscience Inc. (Kobe, Japan); host or cells: baculovirus expression system
Assay: Determination of Janus Kinase 3 (JAK3) inhibitory activity
Format: biochemical
Settings: JAK3 inhibitory activity
Procedure: Test 1: Determination of Janus Kinase 3 (JAK3) Inhibitory Activity
The assay for JAK3 activity was performed basically according to the method as proposed by Okimoto et al, as follows.
Purified kinase domain (KD) of human JAK3 was purchased from Carna Bioscience Inc. (Kobe, Japan). 796-1124 (end) amino acids of human JAK3 [accession number #NM_000215] was expressed as N-terminal His-tagged protein (41 kDa) using the baculovirus expression system and purified by using Ni-NTA affinity chromatography.
Biotin-Lyn-Substrate-peptide and ATP were used as substrates. Assay buffer consisted of 15 mM Tris-HCl pH7.5, 0.01% Tween 20 and 2 mM DTT. For the standard assay, 20 μL of substrate solution (Assay buffer containing 627 nM Biotin-Lyn-Substrate-2, 20 μM ATP and 25 mM MgCl2), 10 μL of assay buffer containing test compound and 20 μL of enzyme solution were added to the plate and mixed well.
After 1 hour incubation at ambient temperature, the plate was washed 4 times with wash buffer (50 mM Tris-HCl pH 7.5, 150 mM NaCl, 0.02% Tween 20), and then blocking buffer (wash buffer containing 0.1% Bovine serum albumin) was added to the plate. After 30 minutes incubation at ambient temperature, blocking buffer was removed and HRP-PY-20 solution (HRP-PY-20 500 times diluted with blocking buffer) was added. After 30 minutes incubation at ambient temperature, the plate was washed 4 times and TMB substrate solution (Sigma) was added to the plate. After 4 minutes incubation at ambient temperature, 1 M H2SO4 was added to the plate to stop the reaction. Enzyme activity was measured as optical density at 450 nm.

T1 sequence (P52333 796-1124): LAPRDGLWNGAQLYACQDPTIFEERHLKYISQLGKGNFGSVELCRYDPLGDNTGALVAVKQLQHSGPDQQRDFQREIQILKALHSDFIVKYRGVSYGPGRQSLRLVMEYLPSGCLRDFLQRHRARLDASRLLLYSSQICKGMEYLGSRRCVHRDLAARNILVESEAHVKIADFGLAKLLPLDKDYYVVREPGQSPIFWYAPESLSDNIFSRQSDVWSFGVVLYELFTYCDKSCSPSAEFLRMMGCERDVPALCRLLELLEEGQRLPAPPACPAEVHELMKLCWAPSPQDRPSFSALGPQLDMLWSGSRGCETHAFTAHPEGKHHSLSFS

| IC50 [nM] | SMILES |
| --- | --- |
| 3 | C[C@@H]1CCCC[C@@H]1Nc1c(C(N)=O)cnc2[nH]ccc12 [Example 106, 4-{[(1S,2R)-2-Methylcyclohexyl]amino}-1H-pyrrolo[2,3-b]-pyridine-5-carboxamide] |
| 3 | C[C@@H]1CCCC[C@@H]1n1c(=O)[nH]c2cnc3[nH]ccc3c21 [Example 112, 1-[(1S,2R)-2-methylcyclohexyl]-3,6-dihydroimidazo[4,5-d]pyrrolo[2,3-b]pyridin-2(1H)-one] |

| SMILES | IC50 [nM] |
| --- | --- |
| CC[C@@H]1CCCC[C@@H]1n1c(=O)[nH]c2cnc3[nH]ccc3c21 [Example 118, 1-[(1S,2R)-2-Ethylcyclohexyl]-3,6-dihydroimidazo[4,5-d]pyrrolo-[2,3-b]pyridin-2(1H)-one hydrochloride] | 5.1 |

Same assay, conditions: read-out: IR (JAK3 inhibition rate)

| SMILES | inhibition at 0.01 µM [%] |
| --- | --- |
| CC[C@@H]1CCCC[C@@H]1n1c(=O)[nH]c2cnc3[nH]ccc3c21 [Example 118, 1-[(1S,2R)-2-Ethylcyclohexyl]-3,6-dihydroimidazo[4,5-d]pyrrolo-[2,3-b]pyridin-2(1H)-one hydrochloride] | > 50 |

Same assay, conditions: test compound 10^−5M; read-out: IR (JAK3 inhibition rate)

| inhibition at 10 µM [%] | SMILES |
| --- | --- |
| > 50 | CCOC(=O)c1cnc2[nH]ccc2c1N(C)[C@H]1CCCC[C@H]1C [Example 1, ethyl 4-{methyl[(1S,2R)-2-methylcyclohexyl]amino}-1H-pyrrolo[2,3-b]pyridine-5-carboxylate] |
| > 50 | CN(c1c(C(N)=O)cnc2[nH]ccc12)C1CCCCC1 [Example 4, 4-[Cyclohexyl(methyl)amino]-1H-pyrrolo[2,3-b]pyridine-5-carboxamide] |
| > 50 | C[C@@H]1CCCC[C@@H]1N(C)c1c(C#N)cnc2[nH]ccc12 [Example 5, 4-{Methyl[(1S,2R)-2-methylcyclohexyl]amino}-1H-pyrrolo[2,3-b]-pyridine-5-carbonitrile] |
| > 50 | NC(=O)c1cnc2[nH]ccc2c1NC1CCCC1 [Example 6, 4-(Cyclopentylamino)-1H-pyrrolo[2,3-b]pyridine-5-carboxamide] |
| > 50 | C[C@@H]1CCCC[C@@H]1Nc1c(C#N)cnc2[nH]ccc12 [Example 15, 4-{[(1S,2R)-2-Methylcyclohexyl]amino}-1H-pyrrolo[2,3-b]-pyridine-5-carbonitrile] |
| > 50 | O=C(O)c1cnc2[nH]ccc2c1NC1CCCCC1 [Example 96, 4-(cyclohexylamino)-1H-pyrrolo[2,3-b]pyridine-5-carboxylic acid] |
| > 50 | NC(=O)c1cnc2[nH]ccc2c1N[C@@H]1CCCC[C@@H]1CO [Example 109, 4-{[(1R,2S)-2-(Hydroxymethyl)cyclohexyl]amino}-1H-pyrrolo-[2,3-b]pyridine-5-carboxamide] |
| > 50 | C[C@@H]1CCCC[C@@H]1N(C)c1ccnc2[nH]cnc12 [Example 156, N-Methyl-N-[(1S,2R)-2-methylcyclohexyl]-3H-imidazo[4,5-b]-pyridin-7-amine] |
| > 50 | CNC(=O)c1cnc2[nH]ccc2c1NC1CCCCC1 [Example 187, 4-(cyclohexylamino)-N-methyl-1H-pyrrolo[2,3-b]pyridine-5-carboxamide] |
| > 50 | O=C(Nc1ccccc1)c1cnc2[nH]ccc2c1NC1CCCCC1 [Example 192, 4-(Cyclohexylamino)-N-phenyl-1H-pyrrolo[2,3-b]pyridine-5-carboxamide] |
| > 50 | CN(c1ccnc2nc[nH]c12)C1CCCCC1 [Example 209, N-cyclohexyl-N-methyl-1H-imidazo[4,5-b]pyridin-7-amine] |
| > 50 | CN(c1ccnc2[nH]cc([N+](=O)[O-])c12)C1CCCCC1 [Example 210, N-cyclohexyl-N-methyl-3-nitro-1H-pyrrolo[2,3-b]pyridin-4-amine] |
| > 50 | CN(c1ccnc2[nH]ccc12)C1CCCCC1 [Example 211, N-cyclohexyl-N-methyl-1H-pyrrolo[2,3-b]pyridin-4-amine] |
| > 50 | CN(c1ccnc2[nH]cc(C#N)c12)C1CCCCC1 [Example 212, 4-[cyclohexyl(methyl)amino]-1H-pyrrolo[2,3-b]pyridine-3-carbonitrile] |
| > 50 | CN(c1c(F)cnc2[nH]ccc12)C1CCCCC1 [Example 214, N-cyclohexyl-5-fluoro-N-methyl-1H-pyrrolo[2,3-b]pyridin-4-amine] |
| > 50 | Fc1cnc2[nH]ccc2c1NC1CCCCC1 [Example 222, N-cyclohexyl-5-fluoro-1H-pyrrolo[2,3-b]pyridin-4-amine] |
| > 50 | Fc1cnc2[nH]ccc2c1N1CCCCC1 [Example 223, 5-fluoro-4-(1-piperidinyl)-1H-pyrrolo[2,3-b]pyridine] |
| > 50 | C[C@@H]1CCCC[C@@H]1Nc1c(F)cnc2[nH]ccc12 [Example 225, 5-fluoro-N-[(1S,2R)-2-methylcyclohexyl]-1H-pyrrolo[2,3-b]pyridin-4-amine] |

Same assay, conditions: test compound 10^−8M; read-out: IR (JAK3 inhibition rate)

| inhibition at 0.01 µM [%] | SMILES |
| --- | --- |
| > 50 | C[C@@H]1CCN(C(=O)c2ccc(Cl)s2)C[C@@H]1n1c(=O)[nH]c2cnc3[nH]ccc3c21 (relative stereo) [Example 170, rel-1-{(3R,4R)-1-[(5-Chloro-2-thienyl)carbonyl]-4-methyl-3-piperidinyl}-3,6-dihydroimidazo[4,5-d]pyrrolo[2,3-b]pyridin-2(1H)-one] |
| > 50 | C[C@@H]1CCN(C(=O)CC#N)C[C@@H]1n1c(=O)[nH]c2cnc3[nH]ccc3c21 (relative stereo) [Example 189, rel-3-[(3R,4R)-4-Methyl-3-(2-oxo-3,6-dihydroimidazo[4,5-d]pyrrolo-[2,3-b]pyridin-1(2H)-yl)-1-piperidinyl]-3-oxopropanenitrile] |
| > 50 | C[C@@H]1CCN(C(=O)N2CCC(F)(F)C2)C[C@@H]1n1c(=O)[nH]c2cnc3[nH]ccc3c21 (relative stereo) [Example 274, rel-1-{(3R,4R)-1-[(3,3-difluoropyrrolidin-1-yl)carbonyl]-4-methylpiperidin-3-yl}-3,6-dihydroimidazo[4,5-d]pyrrolo[2,3-b]pyridin-2(1H)-one] |
| > 50 | C[C@@H]1CCN(c2ccc(C#N)cn2)C[C@@H]1n1c(=O)[nH]c2cnc3[nH]ccc3c21 (relative stereo) [Example 323, rel-6-[(3R,4R)-4-Methyl-3-(2-oxo-3,6-dihydroimidazo[4,5-d]-pyrrolo[2,3-b]pyridin-1(2H)-yl)piperidin-1-yl]nicotinonitrile] |
| > 50 | N#Cc1ccc(N2CCC(Nc3c(C(N)=O)cnc4[nH]ccc34)CC2)nc1 [Example 17, 4-{[1-(5-Cyano-2-pyridinyl)-4-piperidinyl]amino}-1H-pyrrolo-[2,3-b]pyridine-5-carboxamide] |
| > 50 | CC(C)[C@@H](C)Nc1c(C(N)=O)cnc2[nH]ccc12 [Example 18, 4-{[(1R)-1,2-Dimethylpropyl]amino}-1H-pyrrolo[2,3-b]pyridine-5-carboxamide] |
| > 50 | C[C@@H]1CCCC[C@@H]1Nc1c(C(N)=O)cnc2[nH]ccc12 [Example 106, 4-{[(1S,2R)-2-Methylcyclohexyl]amino}-1H-pyrrolo[2,3-b]-pyridine-5-carboxamide] |
| > 50 | C[C@@H]1CCCC[C@@H]1n1c(=O)[nH]c2cnc3[nH]ccc3c21 [Example 112, 1-[(1S,2R)-2-methylcyclohexyl]-3,6-dihydroimidazo[4,5-d]pyrrolo[2,3-b]pyridin-2(1H)-one] |
| > 50 | CC1CCN(C(=O)C2(C#N)CC2)CC1n1c(=O)[nH]c2cnc3[nH]ccc3c21 (centres unmarked) [Example 175, 1-{[4-Methyl-3-(2-oxo-3,6-dihydroimidazo[4,5-d]pyrrolo[2,3-b]-pyridin-1(2H)-yl)-1-piperidinyl]carbonyl}cyclopropane-carbonitrile] |
| > 50 | C[C@@H]1CCN(c2ccc(C#N)cn2)C[C@@H]1n1c(=O)[nH]c2cnc3[nH]ccc3c21 [Example 240, 6-[(3R,4R)-4-Methyl-3-(2-oxo-3,6-dihydroimidazo[4,5-d]pyrrolo[2,3-b]pyridin-1(2H)-yl)-1-piperidinyl]nicotinonitrile] |

— patent publication US8163767B2, “Heterocyclic Janus Kinase 3 inhibitors” (Astellas Pharma Inc., priority 2005, dated 2012)
